For one test, the target named is ROS protein (Homo sapiens (Human), UniProt P08922). Nature of the test: Inhibitory activity against the kinase activity of ROS protein. In kind it is biochemical. Conditions: ROS kinase domain, ATP 50 uM.
The target in the next test is RET protein (Homo sapiens (Human), UniProt P07949). Kind of test: Inhibitory activity against the kinase activity of RET protein. The test is classed as biochemical. Conditions: RET kinase domain, ATP 100 μM, reaction 30 minutes.
For test [1], the target named is EML4-ALK fusion protein v1 (Homo sapiens (Human), UniProt Q9UM73). Kind of test: Inhibitory activity against the kinase activity of EML4-ALK fusion protein (HTRF KinEASE-TK). In kind it is biochemical. Particulars: ATP 100 μM, reaction 1 hour. From the text: A recombinant retrovirus was created from expression plasmid FLAG-EML4-ALKv1/pMX-iresCD8 in which cDNA for EML4-ALK fusion protein v1 was integrated, and injected into mouse lymphoid cell line BA/F3 cells. Using a magnetic bead reagent for cell separation and a purification column (anti-CD8 monoclonal antibody immobilized on magnetic beads and a MiniMACS purification column; both are products of Miltenyi Biotec Inc.), cell surface CD8-expressing cells were purified to establish EML4-ALK fusion protein v1-expressing BA/F3 cells. From the cells, EML4-ALK fusion protein v1 was purified and subjected to kinase activity evaluation. EML4-ALK fusion protein v1 was investigated for its phosphorylation activity toward a peptide substrate by using a kinase activity detection kit (HTRF KinEASE-TK; Cisbio Inc.). […] The ATP concentration used was 100 μM.
Chain of EML4-ALK fusion protein v1 (Q9UM73 other isoform, or with tags, fused parts or gaps): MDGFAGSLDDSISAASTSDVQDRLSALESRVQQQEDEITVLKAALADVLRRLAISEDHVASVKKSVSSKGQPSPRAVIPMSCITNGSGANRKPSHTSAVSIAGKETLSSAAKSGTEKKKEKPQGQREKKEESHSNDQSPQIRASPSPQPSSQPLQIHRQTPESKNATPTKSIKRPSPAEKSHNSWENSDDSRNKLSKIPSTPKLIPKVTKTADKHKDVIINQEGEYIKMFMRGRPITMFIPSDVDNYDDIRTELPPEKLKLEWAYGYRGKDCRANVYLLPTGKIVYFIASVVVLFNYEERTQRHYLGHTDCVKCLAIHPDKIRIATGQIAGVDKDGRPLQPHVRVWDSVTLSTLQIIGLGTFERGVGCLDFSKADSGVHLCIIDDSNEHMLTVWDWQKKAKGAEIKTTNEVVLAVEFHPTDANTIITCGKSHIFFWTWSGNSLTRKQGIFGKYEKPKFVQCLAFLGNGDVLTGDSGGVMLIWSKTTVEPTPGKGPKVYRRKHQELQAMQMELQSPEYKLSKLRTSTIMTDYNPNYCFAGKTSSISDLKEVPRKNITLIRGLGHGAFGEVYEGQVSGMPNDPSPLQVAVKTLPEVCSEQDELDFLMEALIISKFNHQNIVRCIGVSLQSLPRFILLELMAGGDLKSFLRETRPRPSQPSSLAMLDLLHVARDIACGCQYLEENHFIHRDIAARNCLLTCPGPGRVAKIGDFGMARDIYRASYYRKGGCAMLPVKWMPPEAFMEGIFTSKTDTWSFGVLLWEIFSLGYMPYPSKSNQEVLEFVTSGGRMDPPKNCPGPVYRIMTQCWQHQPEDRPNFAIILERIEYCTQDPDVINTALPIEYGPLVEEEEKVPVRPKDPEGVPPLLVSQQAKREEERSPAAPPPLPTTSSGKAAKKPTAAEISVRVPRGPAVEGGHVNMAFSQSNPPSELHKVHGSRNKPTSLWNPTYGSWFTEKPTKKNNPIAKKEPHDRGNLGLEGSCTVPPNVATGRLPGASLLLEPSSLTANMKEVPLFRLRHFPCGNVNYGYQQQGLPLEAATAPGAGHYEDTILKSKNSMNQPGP
For orientation: Time-resolved FRET reads energy transfer from a long-lived donor to a nearby acceptor.

Test [2] has as its system human non-small cell lung cancers cell line NCI-H2228 cells. Kind of test: Antitumor test (in vivo) on NCI-H2228 cells. Conditions: NOD/SCID mice; for growth inhibition against NCI-H2228 cells (tumor) compared with the solvent group: oral administration, Student's t-test. From the text: The antitumor effects on EML4-ALK fusion protein-dependent cells can also be confirmed by use of human non-small cell lung cancers cell line NCI-H2228 cells (cells derived from EML4-ALK fusion polynucleotide-positive lung cancer patients (EML4-ALK fusion protein v3-dependent cells)) in place of the EML4-ALK fusion protein v1 expressing 3T3 cells of Test Example 3, as shown below.
3×10^6 cells of NCI-H2228 cells suspended in 50% Matrigel (Invitrogen) were inoculated subcutaneously by injection to the back of 5 weeks old male NOD/SCID mice (Charles River Japan, Inc.). After 3 weeks of the inoculation, the administration of test compounds was initiated. The test was conducted in the solvent group and test compound groups, 6 animals per group. The test compounds were each dissolved in a solvent composed of 10% 1-methyl-2-pyrrolidinone (SIGMA-ALDRICH Inc.)/90% polyethylene glycol 300 (Fluka Inc.) and administered orally at a dose of 1 mg/kg. Administrations were performed once a day for 14 days, and body weight and tumor size were measured every other day. Tumor volume was calculated using the following formula. [Tumor volume(mm^3)]=[Tumor major axis(mm)]×[tumor minor axis(mm)]^2×0.5

Test [3] relates to BA/F3 cells expressing EML4-ALK fusion protein v1. Kind of test: Growth inhibitory activity against EML4-ALK fusion protein-dependent cells. The test is classed as cell-based, mouse. Conditions: Mus musculus, BaF3, 48 h, growth of EML4-ALK fusion protein v1-expressing BA/F3 cells, cultured 2 days. How it is done:
EML4-ALK fusion protein v1-expressing BA/F3 cells can grow in the absence of IL-3. In other words, they are cells that EML4-ALK fusion protein v1-dependently grow.
In a 96-well plate (Iwaki), BA/F3 cells expressing EML4-ALK fusion protein v1 were seeded at 500 cells per well in RPMI1640 medium (Invitrogen) containing 10% fetal bovine serum, followed by addition of a test compound (final concentration: 10 μM to 0.1 nM). As a negative control, DMSO used as a solvent of the test compound was added. Then, the cells were cultured under 5% CO2 at 37° C. for 2 days. A cell counting reagent (AlmarBlue; Biosource) was added, and the cells were cultured for 150 minutes, followed by measurement of fluorescence intensity with a […] (Safire; Tecan) in accordance with instructions attached to the reagent.

In test [4] the test system is EML4-ALK fusion protein v1 expressing 3T3 cells. Nature of the test: Antitumor test (in vivo) on EML4-ALK fusion protein v1 expressing 3T3 cells. Conditions: oral 10 mg/kg once a day for 5 days, Balb/c nude mice, EML4-ALK v1 3T3 tumor; values marked (regression). From the text: Expression plasmid EML4-ALKv1/pMXS in which cDNA for EML4-ALK fusion protein v1 was integrated was trasfected into 3T3 fibroblast cells by the phosphate calcium method to thereby establish EML4-ALK fusion protein v1 expressing 3T3 cells. 3×10^6 cells of EML4-ALK fusion protein v1 expressing 3T3 cells suspended in PBS were inoculated subcutaneously by injection to the back of 5 weeks old male Balb/c nude mice (Charles River Japan, Inc.). After 7 days of the inoculation, the administration of test compound was initiated. The test was conducted in the solvent group and the compound group, 4 animals per group. The test compound was suspended in a solvent composed of 0.5% methylcellulose and administered orally at a dose of 10 mg/kg. Administrations were performed once a day for 5 days, and body weight and tumor size were measured every other day. Tumor volume was calculated using the following formula. [Tumor volume(mm^3)]=[Tumor major axis(mm)]×[tumor minor axis(mm)]^2×0.5
When regression of tumor volume is induced from the day of starting administration, the tumor volume on the day of starting administration and the state in which the tumor disappeared were assumed to be 0% regression and 100% regression, respectively, and the rate of regression of the test compound was calculated.

Chain of RET protein (P07949 724-1016): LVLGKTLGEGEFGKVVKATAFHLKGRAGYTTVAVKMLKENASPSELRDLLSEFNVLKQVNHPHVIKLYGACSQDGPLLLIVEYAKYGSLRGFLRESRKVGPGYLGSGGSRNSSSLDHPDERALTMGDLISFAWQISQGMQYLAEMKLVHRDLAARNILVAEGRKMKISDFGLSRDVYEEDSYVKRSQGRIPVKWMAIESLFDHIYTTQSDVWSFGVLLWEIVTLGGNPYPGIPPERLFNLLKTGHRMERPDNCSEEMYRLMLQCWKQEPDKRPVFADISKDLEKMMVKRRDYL
Chain of ROS protein (P08922 1945-2222): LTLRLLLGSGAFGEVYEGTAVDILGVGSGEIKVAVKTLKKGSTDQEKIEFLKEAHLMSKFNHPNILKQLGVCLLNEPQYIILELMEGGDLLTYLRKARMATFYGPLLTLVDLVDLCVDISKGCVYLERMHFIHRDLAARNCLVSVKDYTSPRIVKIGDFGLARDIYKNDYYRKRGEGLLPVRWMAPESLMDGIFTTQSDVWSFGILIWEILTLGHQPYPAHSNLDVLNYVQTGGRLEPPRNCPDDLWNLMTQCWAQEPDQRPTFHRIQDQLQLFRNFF

A word on the IC50: it is the concentration that gives 50% inhibition. Read a low IC50 as greater potency in that assay. `CCc1nc(C(N)=O)c(Nc2ccc(N3CCC(N4CCN(C)CC4)CC3)c(OC)c2)nc1NC1CCOCC1` [Example 577]: the IC50 at ROS protein was found to be 1.9 nM; at RET protein, 3.4 nM.
For the molecule `NC(=O)c1cnc(N[C@@H]2CCCC[C@@H]2N)nc1Nc1ccc(-c2ccc(N3CCOCC3)cc2)cc1` (racemic) [Compound X, rac-2-{[(1R,2S)-2-aminocyclohexyl]amino}-4-{[4′-(morpholin-4-yl)biphenyl-4-yl]amino}pyrimidine-5-carboxamide, reference compound], the values for the IC50 in test [1] and in test [3] were 220 nM and 821 nM, respectively. In addition, in test [2], the “growth inhibition against NCI-H2228 cells (tumor) compared with the solvent group” value is listed as “no significant growth inhibition”.
On the same counts, the results for `CCc1nc(C(N)=O)c(Nc2cccc(C)c2)nc1NCCN(C)C` [Compound Y, 5-{[2-(dimethylamino)ethyl]amino}-6-ethyl-3-[(3-methylphenyl)amino]pyrazine-2-carboxamide, reference compound] are greater than 1000 nM, greater than 1000 nM and “no significant growth inhibition”.
As to `CC(C)c1nc(C(N)=O)c(Nc2ccc(N3CCC(N4CCN(C)CC4)CC3)cc2)nc1NC1CCOCC1` [Example 549], the IC50 is 2.1 nM in test [1] and 14 nM in test [3]. In test [2] (oral 1 mg/kg once a day for 14 days), the “inhibition rate of growth of tumor of NCI-H2228 cells” value worked out at 69%. In addition, the “rate of regression (tumor volume)” value in test [4] is reported as 67 (regression) %.

The record behind these values is patent publication US8969336B2, “Diamino heterocyclic carboxamide compound” (Astellas Pharma Inc., priority 2009, dated 2015).
